Measurements from ChEMBL document CHEMBL1147144, “Novel styrylpyridines as probes for SPECT imaging of amyloid plaques” (J Med Chem, 2007).

Columns and labels:
Blood [1] = test: Biodistribution in ICR mouse blood at 5 to 10 uCi, iv after 30 mins; format: ADME, organism-based; settings: in vivo, 0.5 h
Zone of skin [2] = test: Biodistribution in ICR mouse skin at 5 to 10 uCi, iv after 2 hrs; format: ADME, organism-based; settings: in vivo
Blood [3] = test: Biodistribution in ICR mouse blood at 5 to 10 uCi, iv after 2 mins; format: ADME, organism-based; settings: in vivo
Liver [4] = test: Biodistribution in ICR mouse liver at 5 to 10 uCi, iv after 2 hrs; format: ADME, organism-based; settings: in vivo
Muscle tissue [5] = test: Biodistribution in ICR mouse muscle at 5 to 10 uCi, iv after 2 hrs; format: ADME, organism-based; settings: in vivo
Spleen [6] = test: Biodistribution in ICR mouse spleen at 5 to 10 uCi, iv after 1 hr; format: ADME, organism-based; settings: in vivo
Liver [7] = test: Biodistribution in ICR mouse liver at 5 to 10 uCi, iv after 30 mins; format: ADME, organism-based; settings: in vivo, 0.5 h
Thyroid gland [8] = test: Biodistribution in ICR mouse thyroid at 5 to 10 uCi, iv after 30 mins; format: ADME, organism-based; settings: in vivo, 0.5 h
Spleen [9] = test: Biodistribution in ICR mouse spleen at 5 to 10 uCi, iv after 2 hrs; format: ADME, organism-based; settings: in vivo
Spleen [10] = test: Biodistribution in ICR mouse spleen at 5 to 10 uCi, iv after 2 mins; format: ADME, organism-based; settings: in vivo
Zone of skin [11] = test: Biodistribution in ICR mouse skin at 5 to 10 uCi, iv after 2 mins; format: ADME, organism-based; settings: in vivo
Heart [12] = test: Biodistribution in ICR mouse heart at 5 to 10 uCi, iv after 1 hr; format: ADME, organism-based; settings: in vivo
Thyroid gland [13] = test: Biodistribution in ICR mouse thyroid at 5 to 10 uCi, iv after 2 hrs; format: ADME, organism-based; settings: in vivo
Thyroid gland [14] = test: Biodistribution in ICR mouse thyroid at 5 to 10 uCi, iv after 2 mins; format: ADME, organism-based; settings: in vivo
Lung [15] = test: Biodistribution in ICR mouse lung at 5 to 10 uCi, iv after 30 mins; format: ADME, organism-based; settings: in vivo, 0.5 h
Thyroid gland [16] = test: Biodistribution in ICR mouse thyroid at 5 to 10 uCi, iv after 1 hr; format: ADME, organism-based; settings: in vivo
Muscle tissue [17] = test: Biodistribution in ICR mouse muscle at 5 to 10 uCi, iv after 30 mins; format: ADME, organism-based; settings: in vivo, 0.5 h
Brain [18] = test: Biodistribution in ICR mouse brain at 5 to 10 uCi, iv after 2 mins; format: ADME, organism-based; settings: in vivo
Heart [19] = test: Biodistribution in ICR mouse heart at 5 to 10 uCi, iv after 30 mins; format: ADME, organism-based; settings: in vivo, 0.5 h
Liver [20] = test: Biodistribution in ICR mouse liver at 5 to 10 uCi, iv after 2 mins; format: ADME, organism-based; settings: in vivo
Heart [21] = test: Biodistribution in ICR mouse heart at 5 to 10 uCi, iv after 2 mins; format: ADME, organism-based; settings: in vivo
Blood [22] = test: Biodistribution in ICR mouse blood at 5 to 10 uCi, iv after 1 hr; format: ADME, organism-based; settings: in vivo
Kidney [23] = test: Biodistribution in ICR mouse kidney at 5 to 10 uCi, iv after 2 hrs; format: ADME, organism-based; settings: in vivo
Muscle tissue [24] = test: Biodistribution in ICR mouse muscle at 5 to 10 uCi, iv after 1 hr; format: ADME, organism-based; settings: in vivo
Zone of skin [25] = test: Biodistribution in ICR mouse skin at 5 to 10 uCi, iv after 30 mins; format: ADME, organism-based; settings: in vivo, 0.5 h
Brain [26] = test: Biodistribution in ICR mouse brain at 5 to 10 uCi, iv after 2 hrs; format: ADME, organism-based; settings: in vivo
Brain [27] = test: Ratio of drug distribution in brain after 2 mins to 30 mins in ICR mouse at 5 to 10 uCi, iv; format: ADME, organism-based; settings: in vivo
Spleen [28] = test: Biodistribution in ICR mouse spleen at 5 to 10 uCi, iv after 30 mins; format: ADME, organism-based; settings: in vivo, 0.5 h
Heart [29] = test: Biodistribution in ICR mouse heart at 5 to 10 uCi, iv after 2 hrs; format: ADME, organism-based; settings: in vivo
Brain [30] = test: Biodistribution in ICR mouse brain at 5 to 10 uCi, iv after 1 hr; format: ADME, organism-based; settings: in vivo
Lung [31] = test: Biodistribution in ICR mouse lung at 5 to 10 uCi, iv after 1 hr; format: ADME, organism-based; settings: in vivo
Zone of skin [32] = test: Biodistribution in ICR mouse skin at 5 to 10 uCi, iv after 1 hr; format: ADME, organism-based; settings: in vivo
Brain [33] = test: Biodistribution in ICR mouse brain at 5 to 10 uCi, iv after 30 mins; format: ADME, organism-based; settings: in vivo, 0.5 h
Lung [34] = test: Biodistribution in ICR mouse lung at 5 to 10 uCi, iv after 2 hrs; format: ADME, organism-based; settings: in vivo
Kidney [35] = test: Biodistribution in ICR mouse kidney at 5 to 10 uCi, iv after 2 mins; format: ADME, organism-based; settings: in vivo
Kidney [36] = test: Biodistribution in ICR mouse kidney at 5 to 10 uCi, iv after 1 hr; format: ADME, organism-based; settings: in vivo
Lung [37] = test: Biodistribution in ICR mouse lung at 5 to 10 uCi, iv after 2 mins; format: ADME, organism-based; settings: in vivo
Liver [38] = test: Biodistribution in ICR mouse liver at 5 to 10 uCi, iv after 1 hr; format: ADME, organism-based; settings: in vivo
Blood [39] = test: Biodistribution in ICR mouse blood at 5 to 10 uCi, iv after 2 hrs; format: ADME, organism-based; settings: in vivo
Kidney [40] = test: Biodistribution in ICR mouse kidney at 5 to 10 uCi, iv after 30 mins; format: ADME, organism-based; settings: in vivo, 0.5 h
Muscle tissue [41] = test: Biodistribution in ICR mouse muscle at 5 to 10 uCi, iv after 2 mins; format: ADME, organism-based; settings: in vivo
[42] = Partition coefficient, log P at pH 7.4; format: physicochemical; settings: octanol/water

CN(C)c1ccc(/C=C/c2cnc(OCCO)c([125I])c2)cc1
Drug uptake (Blood [1]): 2.24 % ID/g
Drug uptake (Zone of skin [2]): 0.4 % ID/g
Drug uptake (Blood [3]): 2.71 % ID/g
Drug uptake (Liver [4]): 4.87 % ID/g
Drug uptake (Muscle tissue [5]): 0.22 % ID/g
Drug uptake (Spleen [6]): 1.32 % ID/g
Drug uptake (Liver [7]): 12.4 % ID/g
Drug uptake (Thyroid gland [8]): 11.2 % ID/g
Drug uptake (Spleen [9]): 0.8 % ID/g
Drug uptake (Spleen [10]): 4.4 % ID/g
Drug uptake (Zone of skin [11]): 0.46 % ID/g
Drug uptake (Heart [12]): 1.12 % ID/g
Drug uptake (Thyroid gland [13]): 24.8 % ID/g
Drug uptake (Thyroid gland [14]): 4.15 % ID/g
Drug uptake (Lung [15]): 3.02 % ID/g
Drug uptake (Thyroid gland [16]): 59.1 % ID/g
Drug uptake (Muscle tissue [17]): 1.05 % ID/g
Drug uptake (Brain [18]): 5.43 % ID/g
Drug uptake (Heart [19]): 1.93 % ID/g
Drug uptake (Liver [20]): 19.1 % ID/g
Drug uptake (Heart [21]): 10.2 % ID/g
Drug uptake (Blood [22]): 2.18 % ID/g
Drug uptake (Kidney [23]): 1.48 % ID/g
Drug uptake (Muscle tissue [24]): 0.55 % ID/g
Drug uptake (Zone of skin [25]): 1.18 % ID/g
Drug uptake (Brain [26]): 0.46 % ID/g
Ratio (Brain [27]): 1.52
Drug uptake (Spleen [28]): 1.94 % ID/g
Drug uptake (Heart [29]): 0.62 % ID/g
Drug uptake (Brain [30]): 1.32 % ID/g
Drug uptake (Lung [31]): 1.98 % ID/g
Drug uptake (Zone of skin [32]): 1.16 % ID/g
Drug uptake (Brain [33]): 3.56 % ID/g
Drug uptake (Lung [34]): 1 % ID/g
Drug uptake (Kidney [35]): 14.3 % ID/g
Drug uptake (Kidney [36]): 2.49 % ID/g
Drug uptake (Lung [37]): 9.41 % ID/g
Drug uptake (Liver [38]): 6.22 % ID/g
Drug uptake (Blood [39]): 1.01 % ID/g
Drug uptake (Kidney [40]): 4.19 % ID/g
Drug uptake (Muscle tissue [41]): 0.71 % ID/g
logD [42]: 2.2

CN(C)c1ccc(/C=C/c2cnc(OCCOCCOCCF)c([125I])c2)cc1
Drug uptake (Blood [1]): 2.05 % ID/g
Drug uptake (Zone of skin [2]): 1.23 % ID/g
Drug uptake (Blood [3]): 2.7 % ID/g
Drug uptake (Liver [4]): 5.62 % ID/g
Drug uptake (Muscle tissue [5]): 0.53 % ID/g
Drug uptake (Spleen [6]): 0.99 % ID/g
Drug uptake (Liver [7]): 9.54 % ID/g
Drug uptake (Thyroid gland [8]): 16.2 % ID/g
Drug uptake (Spleen [9]): 0.79 % ID/g
Drug uptake (Spleen [10]): 4.47 % ID/g
Drug uptake (Zone of skin [11]): 0.54 % ID/g
Drug uptake (Heart [12]): 0.97 % ID/g
Drug uptake (Thyroid gland [13]): 60.8 % ID/g
Drug uptake (Thyroid gland [14]): 3.89 % ID/g
Drug uptake (Lung [15]): 2.5 % ID/g
Drug uptake (Thyroid gland [16]): 24.2 % ID/g
Drug uptake (Muscle tissue [17]): 1 % ID/g
Drug uptake (Brain [18]): 4.03 % ID/g
Drug uptake (Heart [19]): 1.63 % ID/g
Drug uptake (Liver [20]): 22.2 % ID/g
Drug uptake (Heart [21]): 12.76 % ID/g
Drug uptake (Blood [22]): 1.65 % ID/g
Drug uptake (Kidney [23]): 1.71 % ID/g
Drug uptake (Muscle tissue [24]): 0.59 % ID/g
Drug uptake (Zone of skin [25]): 1.47 % ID/g
Drug uptake (Brain [26]): 0.26 % ID/g
Ratio (Brain [27]): 2.09
Drug uptake (Spleen [28]): 1.42 % ID/g
Drug uptake (Heart [29]): 0.73 % ID/g
Drug uptake (Brain [30]): 0.68 % ID/g
Drug uptake (Lung [31]): 1.62 % ID/g
Drug uptake (Zone of skin [32]): 1.59 % ID/g
Drug uptake (Brain [33]): 1.93 % ID/g
Drug uptake (Lung [34]): 1.33 % ID/g
Drug uptake (Kidney [35]): 16.6 % ID/g
Drug uptake (Kidney [36]): 2.3 % ID/g
Drug uptake (Lung [37]): 10.1 % ID/g
Drug uptake (Liver [38]): 5.34 % ID/g
Drug uptake (Blood [39]): 1.45 % ID/g
Drug uptake (Kidney [40]): 3.32 % ID/g
Drug uptake (Muscle tissue [41]): 0.9 % ID/g
logD [42]: 2.2
